In paper PMC5908784, “Extracellular loops 2 and 3 of the calcitonin receptor selectively modify agonist binding and efficacy” (Biochemical Pharmacology, 2018):
Changes are numbered by the printed parent chain. Where no end group is shown, it is not given here.

Assays:
Assay in all cases: Homologous whole cell competition binding
Details in all cases: homologous competition of 125I-sCT(8-32), whole cells, mean ± S.E.M., SEM
[1] = biological target: T1, hCTR Y284A (Homo sapiens, UniProt P30988, Y284A)
T1 construct: expressed in transfected cells
T1 sequence (P30988 25-474 Y284A): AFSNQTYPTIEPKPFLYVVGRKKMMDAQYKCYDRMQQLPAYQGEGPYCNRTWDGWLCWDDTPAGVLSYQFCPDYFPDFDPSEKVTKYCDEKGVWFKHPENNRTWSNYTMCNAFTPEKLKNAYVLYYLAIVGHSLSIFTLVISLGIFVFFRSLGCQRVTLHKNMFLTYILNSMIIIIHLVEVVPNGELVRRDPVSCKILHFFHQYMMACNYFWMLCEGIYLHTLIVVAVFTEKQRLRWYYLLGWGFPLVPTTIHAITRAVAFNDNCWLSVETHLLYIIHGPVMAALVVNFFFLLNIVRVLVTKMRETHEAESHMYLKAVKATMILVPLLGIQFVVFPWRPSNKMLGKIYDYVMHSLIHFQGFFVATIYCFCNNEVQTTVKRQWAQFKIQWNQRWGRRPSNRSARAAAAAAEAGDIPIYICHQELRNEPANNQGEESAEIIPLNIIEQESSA
How it was run: (§1)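 Whole cells expressing the mutant receptor were incubated overnight at 4 °C with ^125I-sCT(8-32) (25–100 pM, two concentrations) and serial dilutions of unlabelled sCT(8-32). Bound radioactivity was gamma-counted; nonspecific binding was defined with 1 μM sCT(8-32). IC50 was fitted by 3-parameter logistic and Cheng-Prusoff-corrected to pKi.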

[2] = biological target: T2, hCTR F285A (Homo sapiens, UniProt P30988, F285A)
T2 construct: expressed in transfected cells
T2 sequence (P30988 25-474 F285A): T1 sequence (P30988 25-474 Y284A) with A260Y, F261A
How it was run: as §1

[3] = biological target: T3, hCTR V358A (Homo sapiens, UniProt P30988, V358A)
T3 construct: c-Myc (N); expressed in transfected cells
T3 sequence (P30988 25-474 V358A): T1 sequence (P30988 25-474 Y284A) with A260Y, V334A
How it was run: as §1

[4] = biological target: T4, hCTR WT (Homo sapiens, UniProt P30988)
T4 construct: expressed in transfected cells
T4 sequence (P30988 25-474): T1 sequence (P30988 25-474 Y284A) with A260Y
How it was run: as §1

Ki [1]: 0.141 nM
Ki [2]: 0.102 nM
Ki [3]: 0.155 nM
Ki [4]: 0.2 nM
Substance: VLGKLSQELHKLQTYPRTNTGSGTP-NH2 [sCT(8-32)]
